# Data published in patent publication US10188637B2, “Granulate formulation of 5-methyl-1-phenyl-2-(1H)-pyridone and method of making the same” (HOFFMANN-LA ROCHE INC., priority 2016, dated 2019).
# Columns and labels:
# [1] = Flow function coefficient (FFC) of powder blends mixed in a turbula mixer; type: physicochemical; details: powder blend
# Method: Flow function coefficient (FFC) is a measure of powder flow. Values less than about 4 are considered poor and sub-optimal for powder processing. Values between 4-10 are considered acceptable flow values for powder processing. Flow behavior was analyzed for pure pirfenidone (without excipients) and a binary powder mixture of pirfenidone and microcrystalline cellulose mixed with either about 1% by weight silica or about 2% by weight silica, as shown in Table 3 below. The components were mixed in a turbula mixer and the different flow properties of the blends were measured.
# [2] = after oral administration; cited from earlier work
# [3] = test system: human mesenchymal-like cells (lung fibroblasts, skin fibroblasts, prostate stromal cells, renal mesangial cells); details: graded concentrations in cell culture media; cited from earlier work
smiles,measurement,setting,value
"Cc1ccc(=O)n(-c2ccccc2)c1 [Pirfenidone, 5-methyl-1-phenyl-2-(1H)-pyridone]",Flow Function Coefficient (Avg.),[1],2.3
same,"Flow Function Coefficient (Avg.), flow rating in words",[1],(poor flow)
same,Observed side effects,[2],"relatively mild (drowsiness, gastric nausea or photosensitivity rash)"
same,Serious adverse reactions,[2],No serious adverse reactions have been reported
same,Effective levels relative to levels exerting pharmacologically toxic effects on the cells,[3],ten to twenty times lower
